Test system: antigen specific CD8^+ T cells
Test: IL-21 addition to NEO-STIM.RNA cultures
Type: cell-based, human
Text: In order to improve the NEO-STIM protocol using RNA, IL-21 was explored as an addition to the protocol.

For “IL-21: cytokine added to the NEO-STIM RNA protocol”, the “hit rate, neoantigen specific frequency and cell expansion” value (NEO-PTC-01.RNA, healthy donor, day 14 read-out) was “increased hit rate, neoantigen specific frequency and cell expansion”, the “central memory phenotype in antigen specific CD8^+ T cells” value (NEO-STIM) was “increases central memory phenotype in antigen specific CD8^+ T cells” and the Tcm population (NEO-STIM.RNA) was “increases Tcm population in our NEO-STIM.RNA cultures”. For the same substance, the expansion of cultures (NEO-STIM.RNA) was “improves the expansion of NEO-STIM.RNA cultures” and the “priming of specific T cells” value (NEO-STIM.RNA) was “improves the priming of specific T cells in NEO-STIM.RNA cultures”.

From patent publication US20250195659A1, “T CELL MANUFACTURING COMPOSITIONS AND METHODS” (BIONTECH US INC., priority 2021, published 2025)
